The target in test [1] is T1, GST-tagged truncated LRRK2 (Homo sapiens, UniProt Q5S007).
T1 construct: GST-tagged truncated LRRK2 from Invitrogen (Cat # PV4874); GST; purchased Invitrogen PV4874
Description: LRRK2 Assay, Format 1 (Lantha Screen), WT. It counts as biochemical. The essentials:
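Kinase activity measured by TR-FRET: GST-tagged truncated LRRK2 (4 μg/mL working solution) reacted with fluorescein-labeled LRRKtide (ERM-based peptide) across a compound dose response for 2 h at room temperature. Reaction stopped with EDTA-containing detection buffer (20 mM Tris pH 7.6) holding 2 nM terbium anti-phospho-ERM antibody.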

The target in another test is mutant G2019S LRRK2 (Homo sapiens, UniProt Q5S007, G2019S). Description: LRRK2 Assay, Format 1 (Lantha Screen), G2019S mutant.
Where [2] appears, read: Format 1, wild-type LRRK2, geometric mean of 2-4 determinations unless footnoted (a: ≥5 determinations; b: single determination; c: determined on trifluoroacetate salt).

Structures can show the parent of a compound that is named as a salt.

mutant G2019S LRRK2, sequence (Q5S007 970-2527 G2019S limits assumed): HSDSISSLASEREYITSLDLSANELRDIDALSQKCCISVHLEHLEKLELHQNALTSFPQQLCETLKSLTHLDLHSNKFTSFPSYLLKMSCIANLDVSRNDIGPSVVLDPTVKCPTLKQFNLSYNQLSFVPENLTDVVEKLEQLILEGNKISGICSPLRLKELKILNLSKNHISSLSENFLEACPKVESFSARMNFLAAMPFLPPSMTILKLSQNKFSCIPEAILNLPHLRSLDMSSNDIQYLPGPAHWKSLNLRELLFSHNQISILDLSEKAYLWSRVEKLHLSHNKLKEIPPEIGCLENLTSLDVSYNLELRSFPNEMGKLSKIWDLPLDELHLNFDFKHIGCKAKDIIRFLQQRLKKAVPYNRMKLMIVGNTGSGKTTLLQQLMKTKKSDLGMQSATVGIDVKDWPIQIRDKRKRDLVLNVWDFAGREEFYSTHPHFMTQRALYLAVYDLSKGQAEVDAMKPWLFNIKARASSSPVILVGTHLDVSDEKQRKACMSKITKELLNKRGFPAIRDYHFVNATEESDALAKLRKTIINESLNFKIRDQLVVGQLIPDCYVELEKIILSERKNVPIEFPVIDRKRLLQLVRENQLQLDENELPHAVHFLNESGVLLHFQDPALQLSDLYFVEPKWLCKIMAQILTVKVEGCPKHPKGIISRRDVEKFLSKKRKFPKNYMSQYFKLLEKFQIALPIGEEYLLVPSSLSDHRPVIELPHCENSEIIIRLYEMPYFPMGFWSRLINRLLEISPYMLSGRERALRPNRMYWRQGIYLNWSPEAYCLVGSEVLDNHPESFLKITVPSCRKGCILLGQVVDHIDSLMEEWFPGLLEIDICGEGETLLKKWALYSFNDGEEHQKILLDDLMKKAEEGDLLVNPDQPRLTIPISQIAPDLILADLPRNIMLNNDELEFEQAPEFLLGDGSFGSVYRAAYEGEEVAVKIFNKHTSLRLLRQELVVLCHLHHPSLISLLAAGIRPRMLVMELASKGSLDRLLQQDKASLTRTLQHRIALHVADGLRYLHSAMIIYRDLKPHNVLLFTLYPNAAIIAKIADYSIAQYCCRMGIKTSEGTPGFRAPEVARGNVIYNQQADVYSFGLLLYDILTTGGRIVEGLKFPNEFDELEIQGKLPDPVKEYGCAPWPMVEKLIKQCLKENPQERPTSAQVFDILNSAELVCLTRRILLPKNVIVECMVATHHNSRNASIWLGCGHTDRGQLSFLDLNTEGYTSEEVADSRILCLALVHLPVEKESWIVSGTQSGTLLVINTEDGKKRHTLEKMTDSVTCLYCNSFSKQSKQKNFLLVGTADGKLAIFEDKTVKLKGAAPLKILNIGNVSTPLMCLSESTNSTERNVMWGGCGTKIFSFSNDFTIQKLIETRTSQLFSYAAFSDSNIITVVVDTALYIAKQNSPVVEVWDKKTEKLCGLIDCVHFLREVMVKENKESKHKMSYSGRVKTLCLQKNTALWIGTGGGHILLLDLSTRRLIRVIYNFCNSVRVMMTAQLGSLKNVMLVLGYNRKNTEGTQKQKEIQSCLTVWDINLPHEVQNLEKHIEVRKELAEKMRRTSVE
T1 sequence (Q5S007 970-2527 limits assumed): as the sequence (Q5S007 970-2527 G2019S limits assumed) above, with S1050G counted along it

As to `Clc1cn2cc(Cc3nc4cnc5ccccc5c4n3C3CCOCC3)nc2s1` [Example 71, 2-[(2-chloroimidazo[2,1-b][1,3]thiazol-6-yl)methyl]-1-(tetrahydro-2H-pyran-4-yl)-1H-imidazo[4,5-c]quinoline, trifluoroacetate salt], the 50% inhibitory concentration (IC50) in test [1] (setting [2]) was found to be 106 nM; against mutant G2019S LRRK2, 120 nM.
Consider `CC1(C)CC(n2c(Cc3cscn3)nc3cnc4ccccc4c32)CCO1` (stereo not shown) [Example 72, 1-(2,2-dimethyltetrahydro-2H-pyran-4-yl)-2-(1,3-thiazol-4-ylmethyl)-1H-imidazo[4,5-c]quinoline, trifluoroacetate salt], for which the figures for the half-maximal inhibitory concentration (IC50) (in test [1] (setting [2]); against mutant G2019S LRRK2) were 156 nM and 170 nM, respectively.
Consider `CC1(C)CC(n2c(Cc3cn4ncsc4n3)nc3cnc4ccccc4c32)CCO1` (stereo not shown) [Example 73, 1-(2,2-dimethyltetrahydro-2H-pyran-4-yl)-2-(imidazo[2,1-b][1,3,4]thiadiazol-6-ylmethyl)-1H-imidazo[4,5-c]quinoline, trifluoroacetate salt], for which the IC50 in test [1] (setting [2]) was 76.3 nM; at mutant G2019S LRRK2 it was 98.4 nM.
Take `Fc1ccc2ncc3nc(Cn4cc(C(F)(F)F)nn4)n(C4CCOCC4)c3c2c1` [Example 74, 8-fluoro-1-(tetrahydro-2H-pyran-4-yl)-2-{[4-(trifluoromethyl)-1H-1,2,3-triazol-1-yl]methyl}-1H-imidazo[4,5-c]quinoline, trifluoroacetate salt]: the IC50 in test [1] (setting [2]) was 112 nM; at mutant G2019S LRRK2, 102 nM.
The corresponding values for `Fc1ccc2ncc3nc(Cc4ccon4)n(C4CCOCC4)c3c2c1` [Example 75, 8-fluoro-2-(1,2-oxazol-3-ylmethyl)-1-(tetrahydro-2H-pyran-4-yl)-1H-imidazo[4,5-c]quinoline, trifluoroacetate salt] are 130 nM and 155 nM.
Turning to `Fc1ccc2ncc3nc(Cn4cc5ccccc5n4)n(C4CCOCC4)c3c2c1` [Example 76, 8-fluoro-2-(2H-indazol-2-ylmethyl)-1-(tetrahydro-2H-pyran-4-yl)-1H-imidazo[4,5-c]quinoline, trifluoroacetate salt], the IC50 in test [1] (setting [2]) is 67.5 nM; against mutant G2019S LRRK2, 54.5 nM.
`Fc1ccc2ncc3nc(Cc4cscn4)n(C4CCOCC4)c3c2c1` [Example 77, 8-fluoro-1-(tetrahydro-2H-pyran-4-yl)-2-(1,3-thiazol-4-ylmethyl)-1H-imidazo[4,5-c]quinoline, trifluoroacetate salt]: the values for the IC50 (in test [1] (setting [2]); on mutant G2019S LRRK2) were 74.6 nM and 62.5 nM, respectively.
As to `Fc1ccc2ncc3nc(Cn4cc(C(F)(F)F)cn4)n(C4CCOCC4)c3c2c1` [Example 78, 8-fluoro-1-(tetrahydro-2H-pyran-4-yl)-2-{[4-(trifluoromethyl)-1H-pyrazol-1-yl]methyl}-1H-imidazo[4,5-c]quinoline, trifluoroacetate salt], the IC50 in test [1] (setting [2]) turned out to be 145 nM; against mutant G2019S LRRK2 it was 115 nM.
On to `CC1(C)CC(n2c(Cn3cc(C4CC4)nn3)nc3cnc4ccc(F)cc4c32)CCO1` (stereo not shown) [Example 79, 2-[(4-cyclopropyl-1H-1,2,3-triazol-1-yl)methyl]-1-(2,2-dimethyltetrahydro-2H-pyran-4-yl)-8-fluoro-1H-imidazo[4,5-c]quinoline, trifluoroacetate salt], for which the values for the IC50 (in test [1] (setting [2]); on mutant G2019S LRRK2) were 53.8 nM and 47.3 nM, respectively.
The corresponding values for `CC1(C)CC(n2c(Cc3cscn3)nc3cnc4ccc(F)cc4c32)CCO1` (stereo not shown) [Example 80, 1-(2,2-dimethyltetrahydro-2H-pyran-4-yl)-8-fluoro-2-(1,3-thiazol-4-ylmethyl)-1H-imidazo[4,5-c]quinoline, trifluoroacetate salt] are 52.1 nM and 39.5 nM.
Regarding `CC1(C)CC(n2c(Cn3cc(C(F)(F)F)cn3)nc3cnc4ccc(F)cc4c32)CCO1` (stereo not shown) [Example 81, 1-(2,2-dimethyltetrahydro-2H-pyran-4-yl)-8-fluoro-2-{[4-(trifluoromethyl)-1H-pyrazol-1-yl]methyl}-1H-imidazo[4,5-c]quinoline, trifluoroacetate salt], the IC50 was determined as 159 nM in test [1] (setting [2]) and 121 nM at mutant G2019S LRRK2.
For `Fc1ccc2ncc3nc(Cc4cn5ncsc5n4)n(C4CCOCC4)c3c2c1` [Example 82, 8-fluoro-2-(imidazo[2,1-b][1,3,4]thiadiazol-6-ylmethyl)-1-(tetrahydro-2H-pyran-4-yl)-1H-imidazo[4,5-c]quinoline, trifluoroacetate salt], the concentration for half-maximal inhibition (IC50) in test [1] (setting [2]) came out at 17.6 nM; at mutant G2019S LRRK2, 16.2 nM.
`Cc1nn2cc(Cc3nc4cnc5ccc(F)cc5c4n3C3CCOC(C)(C)C3)nc2s1` (stereo not shown) [Example 83, 1-(2,2-dimethyltetrahydro-2H-pyran-4-yl)-8-fluoro-2-[(2-methylimidazo[2,1-b][1,3,4]thiadiazol-6-yl)methyl]-1H-imidazo[4,5-c]quinoline, trifluoroacetate salt]: the 50% inhibitory concentration (IC50) in test [1] (setting [2]) is 25.4 nM; against mutant G2019S LRRK2 it was 21.2 nM.
On to `CC1(C)CC(n2c(Cc3ccon3)nc3cnc4ccc(F)cc4c32)CCO1` (stereo not shown) [Example 84, 1-(2,2-dimethyltetrahydro-2H-pyran-4-yl)-8-fluoro-2-(1,2-oxazol-3-ylmethyl)-1H-imidazo[4,5-c]quinoline, trifluoroacetate salt], for which the concentration for half-maximal inhibition (IC50) in test [1] (setting [2]) was determined as 31.4 nM; against mutant G2019S LRRK2, 24.9 nM.
`C[C@@H]1C[C@H](n2c(Cc3cscn3)nc3c(N)nc4ccc(Cl)cc4c32)CCO1` [Example 85, 8-chloro-1-[(2R,4R)-2-methyltetrahydro-2H-pyran-4-yl]-2-(1,3-thiazol-4-ylmethyl)-1H-imidazo[4,5-c]quinolin-4-amine, trifluoroacetate salt]: the results for the 50% inhibitory concentration (IC50) (in test [1] (setting [2]); against mutant G2019S LRRK2) were 12.3 nM and 10 nM, respectively.
Take `COc1ccc2ncc3nc(Cc4noc(C)n4)n([C@@H]4CCO[C@H](C)C4)c3c2c1` [Example 87, 8-methoxy-2-[(5-methyl-1,2,4-oxadiazol-3-yl)methyl]-1-[(2R,4R)-2-methyltetrahydro-2H-pyran-4-yl]-1H-imidazo[4,5-c]quinoline]: the concentration for half-maximal inhibition (IC50) in test [1] (setting [2]) stood at 111 nM; against mutant G2019S LRRK2, 38.8 nM.
For `COc1ccc2ncc3nc(Cn4cc(C)nn4)n([C@@H]4CCO[C@H](C)C4)c3c2c1` [Example 88, 8-methoxy-1-[(2R,4R)-2-methyltetrahydro-2H-pyran-4-yl]-2-[(4-methyl-1H-1,2,3-triazol-1-yl)methyl]-1H-imidazo[4,5-c]quinoline], the results for the IC50 (in test [1] (setting [2]); on mutant G2019S LRRK2) were 18 nM and 7.5 nM, respectively.
The like results for `COc1ccc2ncc3nc(Cc4cn5ncsc5n4)n([C@@H]4CCO[C@H](C)C4)c3c2c1` [Example 90, 2-(imidazo[2,1-b][1,3,4]thiadiazol-6-ylmethyl)-8-methoxy-1-[(2R,4R)-2-methyltetrahydro-2H-pyran-4-yl]-1H-imidazo[4,5-c]quinoline] were, in that order, 14.8 nM and 6.4 nM.
Regarding `Cc1cnc(Cc2nc3cnc4ccc(Cl)cc4c3n2[C@@H]2CCO[C@H](C)C2)o1` [Example 92, 8-chloro-2-[(5-methyl-1,3-oxazol-2-yl)methyl]-1-[(2R,4R)-2-methyltetrahydro-2H-pyran-4-yl]-1H-imidazo[4,5-c]quinoline], the results for the half-maximal inhibitory concentration (IC50) (in test [1] (setting [2]); against mutant G2019S LRRK2) were 16.2 nM and 11 nM, respectively.
For the compound `C[C@H]1C[C@@H](n2c(Cc3ccon3)nc3cnc4ccc(C#N)cc4c32)CCO1` [enantiomer of Example 22, 1-[(2 S,4S)-2-methyltetrahydro-2H-pyran-4-yl]-2-(1,2-oxazol-3-ylmethyl)-1H-imidazo[4,5-c]quinoline-8-carbonitrile], the IC50 stood at 534 nM in test [1] (100 nM LRRKtide, 50 μM ATP, 1.7 μg/mL LRRK2 enzyme, two hours at room temperature) and 258 nM at mutant G2019S LRRK2.

Source of the values: patent publication US10039753B2, “Imidazo[4,5-c]quinoline and imidazo[4,5-c][1,5]naphthyridine derivatives as LRRK2 inhibitors” (Pfizer Inc., priority 2015, dated 2018).
